Measurements published in patent publication US10160948B2, “Pluripotent embryonic-like stem cells, compositions, methods and uses thereof” (ABT HOLDING COMPANY, priority 1999, dated 2018).
Marks after values point to notes of the source that are not given here.

Tests used:
[1] = test system: cells isolated from granulation tissue; experiment: Dexamethasone treatment of cells from granulation tissue (wound chambers), assays for phenotypes; assay type: cell-based, rat
pluripotent stem cells = experiment: Proliferation and phenotypic responses to bioactive factors: pluripotent cells; assay type: cell-based; details: for Phenotypic Expression, Pluripotent: presence and approximate distribution of differentiated phenotypes within the culture wells
Text: (§1) Having access to mixed populations of progenitor stem cells, progenitor stem cell clones, and pluripotent stem cell clones permits one to address the influence of various bioactive factors (e.g. recombinant growth factors, purified compounds, and novel inductive factors) on the growth characteristics and phenotypic expression of these stem cells.
(§2) Cryopreserved cells are thawed and plated in MSC-1 at 5, 10, or 20×10^3 cells per well of gelatinized 24-well plates following the standard protocol. Twenty-four hours after initial plating the medium is changed to testing medium (TM) 1 to 6 (TM-1, TM-2, TM-3, TM-4, TM-5, or TM-6). TM-1 to TM-4 consist of Ultraculture (cat. no. 12-725B, lot. nos. OMO455 [TM-1], 1M1724 [TM-2], 2M0420 [TM-3], or 2M0274 [TM-4], Bio-Whittaker, Walkersville, Md.), medium (EMEM or Opti-MEM 0.01 mM β-mercaptoethanol), and 1% (v/v) antibiotic-antimycotic, pH 7.4. TM-5 consists of 98% (v/v) medium, 1% (v/v) HS, and 1% (v/v) antibiotic-antimycotic, pH 7.4. TM-6 consists of 98.5% (v/v) medium, 0.5% (v/v) HS, and 1% (v/v) antibiotic-antimycotic, pH 7.4. […] Four testing media (TM#'s 1-4), each containing various concentrations of Ultraculture, were used as. […] The four Ultraculture-based testing media were: TM-1=15% (v/v) Ultraculture (Lot no. OMO455): 84% (v/v) medium: 1% (v/v) antibiotics; TM-2=15% (v/v) Ultraculture (Lot no. 1M1724): 84% (v/v) medium: 1% (v/v) antibiotics; TM-3=50% (v/v) Ultraculture (Lot no. 2M0420): 49% (v/v) medium: 1% (v/v) antibiotics; and TM-4=75% (v/v) Ultraculture (Lot no. 2M0274): 24% (v/v) medium: 1% (v/v) antibiotics. Pre-incubation for 24 hr in testing medium alone is used to wash out any potential synergistic components in the MSC-1 medium. Twenty-four hours later the testing medium is changed to one of the following. For controls, TM-1 to TM-6 alone is used. To identify clones of progenitor cells, the medium is replaced with TM-1 to TM-6 containing 2 μg/ml insulin (Sigma), an agent that accelerates the appearance of phenotypic expression markers in progenitor cells (TABLE 12). To identify clones of pluripotent cells, the medium is replaced with TM-1 to TM-6 containing 10^−10 to 10^−6 M dexamethasone (Sigma), a general non-specific lineage-inductive agent (TABLE 13). Control and treated cultures are propagated for an additional 30-45 days with medium changes every other day. Four culture wells are used per concentration per experiment. During the 0-45 day time period the cultures are examined subjectively for changes in morphological characteristics on a daily basis. Alterations in phenotypic expression are correlated with the days of treatment and associated insulin or dexamethasone concentrations. The experiment is then repeated utilizing these parameters to confirm objectively the phenotypic expression markers using established histological, functional/histochemical, ELICA/flow cytometry, and molecular assays (TABLE 13).

progenitor stem cells = experiment: Proliferation and phenotypic responses to bioactive factors: progenitor cells; assay type: cell-based; details: for Phenotypic Expression, Progenitor: presence and approximate distribution of differentiated phenotypes within the culture wells
Text: as §1, §2

Swiss-3T3 cells = experiment: Dexamethasone treatment of Swiss-3T3 cells, assay of phenotypes; assay type: cell-based, mouse
Protocol: Frozen 3T3 cells were then thawed, cell viability was determined using 0.4% Typan Blue in PBS with a hemocytometer (Denhardt et al., 1991; Domin and Rozengurt, 1993), and the cells were plated in 24 well plates (Corning Glassworks, Corning, N.Y.), precoated with 1% gelatin at a density of 5000 cells/well. Cells were cultured in EMEM containing 10% horse serum and varying concentrations of dexamethasone (Sigma, Salom, Mo.). Four wells served as controls and received medium without dexamethasone. Four wells each received medium containing 10^−10 M, 10^−9 M, 10^−8 M, 10^−7 M, 10^−6 M dexamethasone. The medium was changed every other day and cultures were examined using phase contrast microscopy for the appearance of different phenotypes.
• Bone—The presence of calcified tissue was assayed by Von Kossa's staining of calcium phosphate as described by Humason. Briefly, the culture medium was removed, and the plates were rinsed twice with the DPBS. The cells were fixed with 0.5 ml of 10% formalin for 3-5 minutes, then rinsed four times with distilled water. One half of a milliliter of freshly prepared 2% silver nitrate solution was then added, and the cells were incubated in the dark for 10 minutes. After incubation, the silver nitrate solution was removed and the cells were rinsed five times with distilled water. Approximately 0.5 ml of distilled water was left on each well. The plate was exposed to bright light for 15 minutes against a white background to reflect light. The plates were again rinsed five times with distilled water and quickly dehydrated with 100% ethanol. The plates were made permanent with glycerin jelly. Confirmation of the presence of calcium phosphate was performed by pretreating selected cultures with 1% weight/volume [ethylene bis(oxyethylenenitrilo)]-tetraacetic acid, a specific calcium chelator, in Ca, MG-free buffer for 1 hour before incubation in the silver nitrate solution. • Muscle—The cells were stained with the MF-20 antibody to sarcomeric myosin (Hybridoma Bank, Ames Iowa) by means of a modified procedure of Young et. al., 1992b. […]

cardiac myocytes = experiment: Beat rate of binucleated beating cells in dexamethasone-treated Swiss-3T3 cultures exposed to isoproterenol and propanolol; assay type: cell-based, mouse
Text: The wells were then washed six times with EMEM+10% horse serum and viewed on a Nikon Diaphot with fluorescent attachment. • Cardiac muscle—Cardiac myocytes were identified based on their large binucleated nuclei and their reactions to inotropic and chronotropic agents.

Row | Molecule | dexamethasone concentrations at which cartilage nodules appeared [1] | dexamethasone concentrations at which fibroblasts appeared ([1]; after 3 weeks) | dexamethasone concentrations at which adipocytes appeared ([1]; first appeared at 2 weeks) | Proliferation, Pluripotent: number of times the agent increased the DNA content per well versus its respective control (pluripotent stem cells) | Proliferation, Progenitor: number of times the agent increased the DNA content per well versus its respective control (progenitor stem cells) | dexamethasone concentration at which binucleated beating cells appeared (Swiss-3T3 cells; 4 weeks in culture) | dexamethasone concentration at which myotubes appeared (Swiss-3T3 cells; 14 days) | dexamethasone concentration at which most adipocytes appeared (Swiss-3T3 cells; after two weeks treatment) | activity on pluripotent and progenitor stem cells, in words (pluripotent stem cells) | Phenotypic Expression, Pluripotent (pluripotent stem cells) | Phenotypic Expression, Progenitor (progenitor stem cells) | beat rate (cardiac myocytes; cells treated with 10^−6 M isoproterenol) | Beats per minute (cardiac myocytes; n = 5, 10−6M)
1 | C[C@@H]1C[C@H]2[C@@H]3CCC4=CC(=O)C=C[C@]4(C)[C@@]3(F)[C@@H](O)C[C@]2(C)[C@@]1(O)C(=O)CO [Dex, dexamethasone] | 10^−9-10^−6 M | 10^−9-10^−7 M | 10^−8-10^−6 M | − | − | 10^−7-10^−6 M | 10^−9-10^−6 M | 10^−8-10^−6 M |  |  |  |  | 
2 | IGF-II: insulin-like growth factor-II |  |  |  | 1 times | 1 times |  |  |  | stimulated lineage-progression in all progenitor cells, but had no measurable effect on pluripotent cells | 0 | All+++ |  | 
3 | b-FGF: Basic-fibroblast growth factor |  |  |  | 1 times | 1 times |  |  |  | stimulated lineage-progression in fibrogenic progenitor cells, inhibited lineage-progression in all other progenitor cells, and had no effect on pluripotent cells | 0 | F++ |  | 
4 | IGF-I: insulin-like growth factor-I |  |  |  | 1 times | 1 times |  |  |  | stimulated lineage-progression in all progenitor cells, but had no measurable effect on pluripotent cells | 0 | All+++ |  | 
5 | PDGF-AA: Platelet-derived growth factor-AA |  |  |  | 16^b times | 16 times |  |  |  | stimulated proliferation in pluripotent cells and in all lineages of progenitor cells | 0 | All+ |  | 
6 | CC(C)NCC(O)c1ccc(O)c(O)c1 (stereo not shown) [Isoproteronol, isoproterenol] |  |  |  |  |  |  |  |  |  |  |  | 85 beats per minute | 87.4± * Beats per minute
7 | TGF-β |  |  |  | −^c | − |  |  |  | stimulated lineage-progression in fibrogenic progenitor cells, inhibited lineage-progression in all other progenitor cells, and had no effect on pluripotent cells | 0 | F++ |  | 
8 | PDGF-BB: platelet-derived growth factor-BB |  |  |  | 19 times | 19 times |  |  |  | stimulated proliferation in pluripotent cells and in all lineages of progenitor cells | 0 | All+ |  | 
